The values below come from patent US9085603B2, “Progesterone receptor antagonists” (Bayer Intellectual Property GmbH, priority 2010, dated 2015).

The test system of one data set is pregnant rats. The experiment in a line: Abortive test on female rats (termination of early pregnancy). Particulars: for Abortion rate: d5-d7 p.c., autopsy d9 p.c.; for In vivo properties in preclinical tests: not further specified. The data set is classed as in vivo, rat. The procedure:
The antagonistic effect of the compounds according to the invention was tested on pregnant rats (6 rats per group) on day (d) 5 to 7 post coitum (p.c.) under conventional keeping and feeding conditions.
After successful pairing, the pregnant animals (presence of sperm in the vaginal smear on day 1 of the pregnancy=d1 p.c.) were randomized and divided into the treatment group and the control group. The animals were then given, subcutaneously or orally, in each case 0.15; 0.5; 1.5 or 5 mg/kg of the test compound or […] of vehicle (benzyl benzoate/ricinus oil: 1+4 [v/v]) daily from day 5 to day 7 (d5-d7 p.c.).
The autopsy was carried out on day 9 (d9 p.c.). As the parameter of the progesterone receptor antagonistic effect, the uterus was investigated with regard to the presence of nidation sites. Here, the complete lack of nidation sites, but also the presence of pathological, haemmorhagic or otherwise abnormal nidation sites, on day 9 (d9 p.c.) was evaluated as an abortion.

Data set [1] deals with T1, human progesterone receptor B (Homo sapiens, UniProt P06401).
T1 construct: expressed in transfected cells; host or cells: SK-N-MC human neuroblastoma cells, stably transfected with pRChPR-B-neo and pMMTV-LUC
T1 sequence (P06401 1-933): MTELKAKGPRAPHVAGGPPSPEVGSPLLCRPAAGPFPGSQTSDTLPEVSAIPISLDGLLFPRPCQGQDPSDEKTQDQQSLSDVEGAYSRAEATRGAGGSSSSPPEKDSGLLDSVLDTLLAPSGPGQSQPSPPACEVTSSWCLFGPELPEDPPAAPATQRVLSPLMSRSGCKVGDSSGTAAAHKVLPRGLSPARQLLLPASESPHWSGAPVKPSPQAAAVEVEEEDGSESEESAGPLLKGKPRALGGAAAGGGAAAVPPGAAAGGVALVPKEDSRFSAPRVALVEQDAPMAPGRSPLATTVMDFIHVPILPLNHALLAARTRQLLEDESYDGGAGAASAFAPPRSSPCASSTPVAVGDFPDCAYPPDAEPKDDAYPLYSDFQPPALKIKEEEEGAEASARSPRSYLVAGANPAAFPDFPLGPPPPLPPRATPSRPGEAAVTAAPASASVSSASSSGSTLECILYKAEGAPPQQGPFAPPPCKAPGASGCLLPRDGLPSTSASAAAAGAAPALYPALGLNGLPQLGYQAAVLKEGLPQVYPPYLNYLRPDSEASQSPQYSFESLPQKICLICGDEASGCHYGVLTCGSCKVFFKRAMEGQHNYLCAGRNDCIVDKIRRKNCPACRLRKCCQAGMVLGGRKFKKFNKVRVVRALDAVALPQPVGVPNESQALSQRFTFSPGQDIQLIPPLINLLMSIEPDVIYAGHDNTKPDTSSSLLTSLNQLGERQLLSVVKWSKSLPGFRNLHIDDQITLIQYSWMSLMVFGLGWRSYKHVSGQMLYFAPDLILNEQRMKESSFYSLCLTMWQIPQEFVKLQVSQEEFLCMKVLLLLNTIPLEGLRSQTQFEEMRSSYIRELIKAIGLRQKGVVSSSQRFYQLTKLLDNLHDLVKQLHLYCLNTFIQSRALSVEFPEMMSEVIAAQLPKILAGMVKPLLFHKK
Put plainly: Progesterone receptor antagonistic effect in stably transfected SK-N-MC cells, MTV-LUC reporter (PR-B). The data set is classed as cell-based. The following applies: antagonism of 0.1 nmol/l promegestone, luciferase reporter, 24 hours. The procedure: Progesterone Receptor Antagonistic Effect in Stable Transfectants of Human Neuroblastoma Cells (SK-N-MC cells) with the Human Progesterone A or Progesterone B Receptor and a MTV-LUC Reporter Construct
SK-N-MC cells (human neuroblastoma cells), which have been stably transfected with plasmids which express the human progesterone receptor B (pRChPR-B-neo) or the human progesterone receptor A (pRChPR-A-neo) and a reporter construct (pMMTV-LUC), were incubated for 24 hours either in the absence (negative control) or in the presence of increasing amounts of the particular test compound (0.01 nmol/l, 0.1 nmol/l, 1 nmol/l, 10 nmol/l, 100 nmol/l and 1 μmol/l) in order to determine the agonistic efficacy. As a positive control of the reporter gene induction, the cells were treated with the synthetic gestagen promegestone (0.01 nmol/l, 0.1 nmol/l, 1 nmol/l, 10 nmol/l, 100 nmol/l and 1 μmol/l). To determine the antagonistic activity, the cells were treated with 0.1 nmol/l of promegestone and additionally with increasing amounts of the particular test compound (0.01 nmol/l, 0.1 nmol/l, 1 nmol/l, 10 nmol/l, 100 nmol/l and 1 μmol/l). The activity of the reporter gene LUC (LUC=luciferase) was determined in the cell lysates and measured as RLU (relative light units). All measurement values are given as percentage efficacy and as EC50 or IC50 concentrations.

For data set [2], the target named is T2, human progesterone receptor A (Homo sapiens, UniProt P06401).
T2 construct: expressed in transfected cells; host or cells: SK-N-MC human neuroblastoma cells, stably transfected with pRChPR-A-neo and pMMTV-LUC
T2 sequence (P06401 1-769 isoform P06401-2): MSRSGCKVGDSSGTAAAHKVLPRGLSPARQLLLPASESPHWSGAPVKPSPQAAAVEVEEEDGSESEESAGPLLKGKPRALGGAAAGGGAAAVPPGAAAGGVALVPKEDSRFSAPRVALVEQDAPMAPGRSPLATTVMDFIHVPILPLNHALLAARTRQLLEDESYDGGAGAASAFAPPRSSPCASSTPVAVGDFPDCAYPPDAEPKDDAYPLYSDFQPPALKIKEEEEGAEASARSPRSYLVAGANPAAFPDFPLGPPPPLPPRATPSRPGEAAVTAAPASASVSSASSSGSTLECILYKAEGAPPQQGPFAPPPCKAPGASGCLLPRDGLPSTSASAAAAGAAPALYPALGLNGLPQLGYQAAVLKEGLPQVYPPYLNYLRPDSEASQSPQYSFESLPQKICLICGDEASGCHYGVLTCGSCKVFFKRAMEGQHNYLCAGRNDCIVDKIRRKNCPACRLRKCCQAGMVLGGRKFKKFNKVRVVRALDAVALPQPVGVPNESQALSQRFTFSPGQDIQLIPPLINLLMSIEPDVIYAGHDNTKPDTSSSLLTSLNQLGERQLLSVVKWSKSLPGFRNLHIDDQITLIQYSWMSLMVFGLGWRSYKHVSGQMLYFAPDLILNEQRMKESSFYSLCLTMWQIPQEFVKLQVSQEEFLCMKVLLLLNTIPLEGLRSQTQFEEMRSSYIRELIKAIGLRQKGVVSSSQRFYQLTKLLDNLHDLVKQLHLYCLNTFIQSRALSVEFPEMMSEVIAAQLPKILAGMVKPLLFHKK
Put plainly: Progesterone receptor antagonistic effect in stably transfected SK-N-MC cells, MTV-LUC reporter (PR-A). The data set is classed as cell-based. The following applies: antagonism of 0.1 nmol/l promegestone, luciferase reporter, 24 hours. An outline of the steps: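 Stably transfected SK-N-MC cells with PR-A or PR-B and MMTV-LUC reporter, treated 24 h with 0.1 nmol/l promegestone plus test compound at 0.01 nmol/l–1 μmol/l. Luciferase in cell lysates read as RLU; values given as percentage efficacy and IC50.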

For data set [3] the following is noted: cited from earlier work.
The subject of another data set is uterus fibroids. The following applies: several clinical studies; cited from earlier work.

`CC(=O)N1CCN(Cc2ccc([C@H]3C[C@@]4(C)C(CC[C@@]4(O)C(F)(F)C(F)(F)F)C4CCC5=CC(=O)CCC5=C43)cc2)CC1` (stereo partly drawn) [Example 11, (11β,17β)-11-{4-[(4-Acetylpiperazin-1-yl)methyl]phenyl}-17-hydroxy-17-(pentafluoroethyl)estra-4,9-dien-3-one]: the Abortion rate with pregnant rats (daily dose 0.5 mg/kg p.o.), with pregnant rats (daily dose 1.5 mg/kg p.o.) and in the data set with pregnant rats (daily dose 5.0 mg/kg p.o.) was 100% in each case. In the data set on pregnant rats, the “In vivo properties in preclinical tests” value is reported as “exceptional in vivo properties”. The IC50 in data set [1] and in data set [2] was 0.095 nM each time.

As to `CN(C)c1ccc([C@H]2C[C@]3(C)[C@@H](CC[C@]3(O)CCCO)[C@@H]3CCC4=CC(=O)CCC4=C32)cc1` [Onapristone, onapristone], the Liver function tests result in data set [3] (clinical studies, some patients) was “abnormalities in liver function tests were observed”.

With `C[C@]12C[C@H](c3ccc(CN4CCN(S(C)(=O)=O)CC4)cc3)C3=C4CCC(=O)C=C4CC[C@H]3[C@@H]1CC[C@@]2(O)C(F)(F)C(F)(F)F` [Example 12, (11β,17β)-17-Hydroxy-11-(4-{[4-(methylsulphonyl)piperazin-1-yl]methyl}phenyl)-17-(pentafluoroethyl)estra-4,9-dien-3-one], the Abortion rate in the data set with pregnant rats (daily dose 0.5 mg/kg p.o.), in the data set on pregnant rats (daily dose 1.5 mg/kg p.o.) and in the data set with pregnant rats (daily dose 5.0 mg/kg p.o.) was 100% in each case. Also, in the data set with pregnant rats, the “In vivo properties in preclinical tests” value is listed as “exceptional in vivo properties”. In addition, the IC50 stood at 0.1 nM in data set [1] and 0.17 nM in data set [2].

As to `CC#C[C@]1(O)CC[C@H]2[C@@H]3CCC4=CC(=O)CCC4=C3[C@@H](c3ccc(N(C)C)cc3)C[C@@]21C` [mifepristone], in the data set on uterus fibroids, the “Effect on uterus fibroids” value was “significant shrinkage of uterus fibroids” and the “Symptoms associated with uterus fibroids” value is reported as “significant reduction in the symptoms”.

Regarding `COCC(=O)[C@@]1(OC(C)=O)CC[C@H]2[C@@H]3CCC4=CC(=O)CCC4=C3[C@@H](c3ccc(N(C)C)cc3)C[C@@]21C` [proellex], in the data set on uterus fibroids, the “Effect on uterus fibroids” value was “significant shrinkage of uterus fibroids” and the “Symptoms associated with uterus fibroids” value is on record as “significant reduction in the symptoms”. In data set [3] (relatively high dosages), the Liver enzymes result was “induction of liver enzymes”.

A word on the IC50: it is the concentration needed to halve the response being measured. Lower therefore signals greater potency in that assay.
